In US5302590A, “Compounds useful as dual antagonists of platelet activating factor and leukotriene D4” (Hoffmann-La Roche Inc., priority 1992, dated 1994):
Like-named read-outs stand apart in the source and are kept apart here.

Assays:
[1] = tested on: platelet activating factor (PAF); experiment: PAF Induced Bronchoconstriction Assay; type: in vivo, guinea pig; details: for ED50: Cavia porcellus, Platelet, read-out: PAF-induced bronchoconstriction ID50; for antagonist activity against bronchoconstriction induced by PAF or LTD4: administered IV, statement covers both PAF and LTD4; for PAF-induced bronchoconstriction, percent inhibition: 10 mg/kg
Method: (§1) The relative potency (ID50 values) of test compounds administered by the intravenous and oral route was determined by administering increasing doses of test compound. For determination of the time course of inhibition for various compounds, the time between administration of compound and challenge with LTD was varied. The time course of activity was calculated as the time when inhibition decreased to 40%.
Male animals (Hartlet Strain, 400-500 g were anesthetized with urethane (2 g/kg, i.p.). Each animals' trachea was cannulated and the guinea pigs were respirated using a Harvard small animal rodent respirator (3.0 cc stroke volume, 40 breaths per min.). Tracheal pressure was recorded from a cannula inserted in the trachea and connected to a Statham pressure transducer.
The jugular vein was cannulated for administering compounds. Spontaneous breathing was arrested with succinylcholine (1.2 mg/kg, i.v.) administered 2 minutes prior to intravenous injection of platelet activating factor PAF).
For the intravenous testing, the guinea pig is given a 1-minute pretreatment with propranolol at a dose of 0.1 mg/kg intravenously. The test compound is administered with a 1 minute pretreatment prior to intravenous challenge with PAF. The animal is then challenged with a 1 μg/kg intravenous dose of PAF and the change in tracheal pressure is measured.
For the oral testing, the procedure includes a 2-hour pretreatment period with the test compound administered through an oral gavage tube. Propranolol or succinylcholine and PAF are administered intravenously, and the change in tracheal pressure measured.
The change in tracheal pressure is determined by subtracting the steady state baseline achieved after administration of succinylcholine from the peak bronchoconstriction seen after challenge with PAF. The mean is calculated for each test compound and compared to the mean of the control animals to give the percent inhibition of bronchoconstriction. The standard error is calculated as the standard error of the mean.
(§2) The compounds listed below were evaluated for antagonist activity against bronchoconstriction induced by PAF or LTD4. Comparative data for a known LTD4 antagonist (Compound B) and a known PAF antagonist (Compound A) are also shown.
(§3) Compounds C, D and E were administered orally at a dose of 10 mg/kg.

[2] = tested on: leukotriene D4 (LTD4); experiment: Leukotriene-induced bronchoconstriction in guinea pigs, in vivo leukotriene D4 (LTD) antagonist test; parameters: species or system guinea pig (Hartley strain); details: for ED50: Cavia porcellus, read-out: LTD4-induced bronchoconstriction ID50
Method: Male guinea pigs (Hartley strain Charles River) weighing 300-500 g were anesthetized with urethane (~2 g/kg) intraperitoneally and a polyethylene cannula was inserted into the jugular vein for intravenous drug administration. Tracheal pressure (cm of H2 O) was recorded from a Statham pressure transducer (P 32 AA). Propranolol was administered 5 minutes prior to challenge with LTD. Two minutes later spontaneous breathing was arrested with succinylcholine chloride (1.2 mg/kg) administered intravenously, and the animals were ventilated with a Harvard (Model #680) small animal respirator set at 40 breaths/min and 4.0 cc stroke volume. Control vehicle or test drug was administered through the cannula into the jugular vein 1 minute before the animals were challenged intravenously with a maximum constrictory dose of LTD (25 μg/kg) given intravenously. The change in tracheal pressure was averaged for control and drug-treated animals and percent inhibition was calculated. For determination of oral activity, animals were dosed with test compound or vehicle two hours prior to challenge with LTD (25 μg/kg, i.v.).
as §1, §2, §3

[3] = 1 min, iv, 1 minute pretreatment, PAF 1 μg/kg i.v.
[4] = 1 min, iv, 1 minute before LTD 25 μg/kg i.v.
[5] = po, 10 mg/kg, two hours prior to LTD 25 μg/kg i.v.

| SMILES | ED50 [1, 3] [mg/kg] | ED50 ([1]; po, 2-hour pretreatment) [mg/kg] | LTD4-induced bronchoconstriction ID50 ([2]; iv, 1 minute before LTD 25 μg/kg i.v.) | LTD4-induced bronchoconstriction ID50 ([2]; po, two hours prior to LTD 25 μg/kg i.v.) | PAF-induced bronchoconstriction ID50 ([1]; iv, 1 minute pretreatment, PAF 1 μg/kg i.v.) | PAF-induced bronchoconstriction ID50 ([1]; po, 2-hour pretreatment) | ED50 [2, 4] [mg/kg] | ED50 ([2]; 2 h, po, two hours prior to LTD 25 μg/kg i.v.) [mg/kg] | antagonist activity against bronchoconstriction induced by PAF or LTD4 [1] | PAF-induced bronchoconstriction, percent inhibition ([1]; po, 2-hour pretreatment) [%] | LTD4-induced bronchoconstriction, percent inhibition [2, 5] [%] | LTD4-induced bronchoconstriction, percent inhibition ([2]; iv column, iv dose not given) [%] |
| --- | --- | --- | --- | --- | --- | --- | --- | --- | --- | --- | --- | --- |
| Cc1nnc2n1-c1sc(C#CCn3c(=O)c4ccccc4c4ccccc43)cc1C(c1ccccc1Cl)=NC2 [Compound A, 5-{3-[4-(2-Chlorophenyl)-9-methyl-6H-thieno[3,2f][1,2,4]triazolo[4,3-a][1,4]diazepin-2-yl]-2-propynyl}phenanthridin-6(5H)-one, reference compound] | 0.02 | 0.12 | Not Active | Not Active | – | – | – | – | – | – | – | – |
| CCC(CC)(CC(=O)Nc1cccc(/C=C/c2nc(C3CCC3)cs2)c1)C(=O)O [Compound B, (E)-4-[3-[2-(4-Cyclobutyl-2-thiazolyl)ethenyl]phenylamino]2,2-diethyl-4-oxobutanoic acid, reference compound] | – | – | – | – | Not Active | Not Active | 0.13 | 0.12 | – | – | – | – |
| Cc1nnc2n1-c1sc(CCc3ccc(CC(=O)Nc4cccc(/C=C/c5nc(C6CCC6)cs5)c4)c(C(=O)O)c3)cc1C(c1ccccc1Cl)=NC2.O [Compound C, (E)-5-[2-[4-(2-chlorophenyl)-9-methyl-6H-thieno-[3,2-f][1,2,4]triazolo[4,3-a][1,4]diazepin-2-yl]ethyl]-2-[2-[3-[2-(4-cyclobutyl-2-thiazolyl)ethenyl]phenylamino]-2-oxoethyl]-benzoic acid monohydrate] | 0.02 | – | – | – | – | – | 0.01 | – | very potent dual acting antagonists | 37 ± 1 | 48 ± 8 | – |
| C=CCNC(=O)c1cc(CCc2cc3c(s2)-n2c(C)nnc2CN=C3c2ccccc2Cl)ccc1CC(=O)Nc1cccc(/C=C/c2nc(C3CCC3)cs2)c1 [Compound D, (E)-4-[2-[4-(2-Chlorophenyl)-9-methyl-6H-thieno-[3,2-f][1,2,4]triazolo[4,3-a][1,4]diazepin-2-yl]ethyl]-N-[3-[2-(4-cyclobutyl-2-thiazolyl)ethenyl]phenyl]-2-[(2-propenylamino)-carbonyl]benzeneacetamide] | 0.02 | – | – | – | – | – | 0.08 | – | very potent dual acting antagonists | 65 ± 1 | 44 ± 15 | – |
| CCOC(=O)c1cc(CCc2cc3c(s2)-n2c(C)nnc2CN=C3c2ccccc2Cl)ccc1CC(=O)Nc1cccc(/C=C/c2nc(C3CCC3)cs2)c1 [Compound E, (E)-5-[2-[4-(2-Chlorophenyl)-9-methyl-6H-thieno-[3,2-f][1,2,4]triazolo[4,3-a][1,4]diazepin-2-yl]ethyl]-2-[2-[3-[2-(4-cyclobutyl-2-thiazolyl)ethenyl]phenylamino]-2-oxoethyl]-benzoic acid ethyl ester] | 0.02 | – | – | – | – | – | – | – | – | 14 ± 9 | – | 46 ± 7 |
